Activity calls are given as the source filed them.
Key:
[1] = biological target: T1, Polyadenylate-binding protein 1 (Homo sapiens, UniProt P11940); assay: PABP1 MLLE–PAM2 binding inhibitor potency, dose response, biochemical, fluorescence polarization, FITC-PAM2 peptide (AID 602259); format: functional; conditions: read-out: IC50_Mean
[2] = biological target: T1, Polyadenylate-binding protein 1; assay: PABP1 MLLE–PAM2 interaction inhibitors, dose response, miRNA deadenylation inhibitor project, biochemical, fluorescence polarization, Cy5-PAM2 peptide, secondary (AID 602260); format: functional; conditions: read-out: IC50_Mean
[3] = biological target: T2, Zinc finger protein mex-5 (Caenorhabditis elegans, UniProt Q9XUB2); assay: MEX-5/TCR-2 RNA interaction inhibitors, dose response, biochemical, C. elegans, fluorescence polarization (AID 1960)
T2 sequence (Q9XUB2 whole entry): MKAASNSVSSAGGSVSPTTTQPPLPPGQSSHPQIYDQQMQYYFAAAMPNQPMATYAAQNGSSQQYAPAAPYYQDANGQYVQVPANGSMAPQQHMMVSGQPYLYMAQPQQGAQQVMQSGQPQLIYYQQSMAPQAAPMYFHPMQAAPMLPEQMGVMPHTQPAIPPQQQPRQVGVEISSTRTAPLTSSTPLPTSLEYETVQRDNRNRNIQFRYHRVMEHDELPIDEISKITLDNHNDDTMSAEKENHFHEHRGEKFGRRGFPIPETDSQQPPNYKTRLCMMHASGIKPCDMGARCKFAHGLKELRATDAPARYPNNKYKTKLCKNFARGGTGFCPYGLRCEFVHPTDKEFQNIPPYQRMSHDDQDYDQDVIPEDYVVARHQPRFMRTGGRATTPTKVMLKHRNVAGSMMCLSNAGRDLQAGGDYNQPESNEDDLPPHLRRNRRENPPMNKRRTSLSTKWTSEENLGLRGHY

[4] = biological target: T3, RNA-binding protein pos-1 (Caenorhabditis elegans, UniProt G5EF15); assay: inhibitors of POS-1/mex-3 RNA binding, dose response, biochemical, fluorescence polarization (AID 1964);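 note: purified POS-1 fused to maltose binding protein made in E. coli; potency of compounds blocking POS-1 binding to fluorescent RNA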
T3 sequence (G5EF15 whole entry): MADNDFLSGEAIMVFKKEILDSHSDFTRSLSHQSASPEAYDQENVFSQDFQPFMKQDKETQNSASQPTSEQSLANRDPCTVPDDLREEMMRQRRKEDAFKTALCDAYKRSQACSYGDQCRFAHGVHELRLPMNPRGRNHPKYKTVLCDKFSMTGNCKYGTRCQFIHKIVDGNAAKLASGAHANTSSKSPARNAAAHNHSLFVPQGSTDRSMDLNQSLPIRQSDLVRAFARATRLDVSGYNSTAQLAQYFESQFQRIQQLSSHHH

[5] = inhibitors of clade B AD8 Env fusion, dose response, cell-based, cherry-pick (AID 652062); format: functional;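 note: luciferase signal from cell-cell fusion driven by HIV-1 clade B AD8 Env; potency is for inhibitors of fusion seen as a drop in luminescence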
[6] = C. albicans growth with fluconazole, confirmation, fluorescence, retest (AID 2467); format: functional, cell-based
[7] = NIH-3T3 fibroblast cytotoxicity, dose response, cytotoxicity control, cell-based, fluorescence, Alamar Blue, secondary assay (AID 2327); format: functional;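 note: NIH-3T3 mouse fibroblasts cultured with fluconazole at 8 µg/mL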
[8] = control 3'UTR Renilla luciferase suppression, dose response, counter-screen for Shn3 inhibitor project, cell-based, Clone20-Shn3RL, cherry-picked (AID 624133); format: functional
[9] = HepG2 cell cytotoxicity, dose response, cytotoxicity control for Shn3 inhibitor project, CellTiter-Glo, cherry-picked (AID 624134); format: functional, cell-based
[10] = Shn3 3'UTR reporter inhibitors, dose response, cell-based, Clone20 osteoblasts, firefly luciferase, cherry-picked (AID 624132); format: functional;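 note: firefly luciferase luminescence from reporter carrying the Shn3 3'UTR in osteoblasts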
[11] = inhibitors of HIV Env-driven cell fusion, dose response, cherry-pick (AID 652057); format: functional, cell-based
[12] = ZM109 Env clade C HIV-1 fusion inhibitors, dose response, HeLa effector, CEM target cells, luciferase, cherry-pick (AID 652058); format: functional, cell-based
[13] = biological target: T4, High affinity choline transporter 1 (Homo sapiens, UniProt Q9GZV3); assay: CHT inhibitors, dose response, cell-based, 5-point CRC, membrane potential dye (AID 504840); format: functional
T4 sequence (Q9GZV3 whole entry): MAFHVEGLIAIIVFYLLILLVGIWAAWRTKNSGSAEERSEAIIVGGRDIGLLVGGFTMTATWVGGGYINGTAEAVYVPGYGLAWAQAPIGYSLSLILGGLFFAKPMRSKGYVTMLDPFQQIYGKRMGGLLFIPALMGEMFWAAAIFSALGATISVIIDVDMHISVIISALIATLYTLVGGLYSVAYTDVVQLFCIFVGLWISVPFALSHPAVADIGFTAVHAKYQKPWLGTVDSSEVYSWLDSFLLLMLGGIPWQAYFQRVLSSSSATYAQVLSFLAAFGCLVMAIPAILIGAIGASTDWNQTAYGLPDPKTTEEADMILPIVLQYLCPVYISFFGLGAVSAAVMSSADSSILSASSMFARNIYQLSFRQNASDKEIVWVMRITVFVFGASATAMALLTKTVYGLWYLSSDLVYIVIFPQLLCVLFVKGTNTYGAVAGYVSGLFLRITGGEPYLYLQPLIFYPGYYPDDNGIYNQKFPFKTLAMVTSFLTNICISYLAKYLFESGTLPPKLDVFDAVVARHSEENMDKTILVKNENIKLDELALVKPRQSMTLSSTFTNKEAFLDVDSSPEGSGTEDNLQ

T1 sequence (P11940 whole entry): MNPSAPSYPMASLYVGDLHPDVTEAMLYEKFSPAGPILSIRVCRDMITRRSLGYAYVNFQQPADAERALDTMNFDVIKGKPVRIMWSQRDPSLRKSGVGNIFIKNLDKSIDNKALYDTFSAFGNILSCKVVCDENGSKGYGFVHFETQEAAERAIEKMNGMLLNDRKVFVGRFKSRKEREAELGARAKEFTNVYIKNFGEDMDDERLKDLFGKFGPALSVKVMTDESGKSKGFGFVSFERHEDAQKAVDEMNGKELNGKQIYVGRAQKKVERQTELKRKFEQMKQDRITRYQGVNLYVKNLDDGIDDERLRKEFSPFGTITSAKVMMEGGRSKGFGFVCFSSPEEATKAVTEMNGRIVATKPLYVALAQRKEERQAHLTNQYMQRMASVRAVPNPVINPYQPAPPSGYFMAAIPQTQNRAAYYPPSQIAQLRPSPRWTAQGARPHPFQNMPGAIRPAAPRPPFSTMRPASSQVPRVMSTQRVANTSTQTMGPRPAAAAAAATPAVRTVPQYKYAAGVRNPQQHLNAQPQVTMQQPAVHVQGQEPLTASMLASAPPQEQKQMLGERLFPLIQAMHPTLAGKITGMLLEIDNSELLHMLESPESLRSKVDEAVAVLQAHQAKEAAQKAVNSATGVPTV

SMILES	IC50 [1]	IC50 [2]	EC50 [3]	EC50 [4]	also measured
O=C1CC(c2ccccc2)CC(=O)C1Sc1ccc(Cl)cc1 (centres undefined)	> 66 µM (inactive)	> 66 µM (inactive)	–	–	–
Cc1nnc(NC(=O)C2c3ccccc3Oc3ccccc32)s1	> 66 µM (inactive)	> 66 µM (inactive)	–	–	–
Cc1ccc(C(N)=S)c(C)c1	> 66 µM (inactive)	> 66 µM (inactive)	–	–	–
O=C1NC(=O)N(CCc2ccc(F)cc2)C(=O)/C1=C/NCCCn1ccnc1	–	–	> 300 µM (not active)	> 300 µM (not active)	–
N#CC1=C(N)OC2=C(C(=O)CCC2)C1c1ccc(OC(=O)N2CCOCC2)cc1 (centres undefined)	–	–	> 300 µM (not active)	> 300 µM (not active)	–
c1csc(CNc2ncnc3sccc23)c1	–	–	–	–	AC50 [5]: 8.87 µM (active); EC50 [6]: 3.28 µM (active); EC50 [7]: > 160 µM (inconclusive); AC50 [8]: 4.77 µM (active); AC50 [9]: 4.61 µM (active); AC50 [10]: 1.8 µM (active); AC50 [11]: 39.4 µM (active); AC50 [12]: 46.1 µM (active)
O=C(Cn1ncc2c3ccccc3n(Cc3ccccc3)c2c1=O)NCCCN1CCCC1	–	–	–	–	IC50 [13]: 13.2 µM (active)
Cn1c(=O)c2nc(COc3ccccc3)[nH]c2n(C)c1=O	29.7 µM (inactive)	33.5 µM (inactive)	–	–	–
CCCN(CC(=O)Nc1ccc(F)c(F)c1F)C(=O)Cn1c(=O)cnc2ccccc21	–	–	–	–	IC50 [13]: 12.3 µM (active)
Cc1cccn2c(=O)c3cc(C#N)/c(=N\C(=O)c4cccs4)n(CCCOC(C)C)c3nc12	–	–	> 300 µM (not active)	141 µM (inconclusive)	–
CO[C@@H](CN(C)S(=O)(=O)c1ccc(Cl)cc1)[C@@H](C)CN([C@H](C)CO)S(=O)(=O)c1cccc(Cl)c1	–	–	–	–	AC50 [5]: 19.5 µM (active); AC50 [11]: 1.25 µM (active); AC50 [12]: 1.1 µM (active)
C/C(=N\NC(=O)c1nnn(-c2nonc2N)c1-c1cccs1)c1cccc(O)c1	–	–	> 300 µM (not active)	> 300 µM (not active)	–

Source: ChEMBL document CHEMBL1201862, “PubChem BioAssay data set” (2004)
